# Assay results taken from ChEMBL document CHEMBL1156829 (Proc Natl Acad Sci U S A, 2008).
# Key:
# Plasmodium falciparum [1] = assay: NOVARTIS: Inhibition of Plasmodium falciparum W2 (drug-resistant) proliferation in erythrocyte-based infection assay; type: functional, organism-based
# [2] = NOVARTIS: Cytotoxicity against human hepatocellular carcinoma cell line (Huh7); type: toxicity, cell-based, Huh-7; conditions: Huh7 cells (hepatocellular carcinoma cell line)
# Plasmodium falciparum [3] = assay: NOVARTIS: Inhibition of Plasmodium falciparum 3D7 (drug-susceptible) proliferation in erythrocyte-based infection assay; type: functional, organism-based
# [4] = Plasmodium falciparum, W2, read-out: EC50
SMILES,EC50 (Plasmodium falciparum [1]; [4]) [nM],CC50 [2] [nM],"EC50 (Plasmodium falciparum [3]; Plasmodium falciparum, 3D7) [nM]",EC50 (Plasmodium falciparum [1]; read-out: EC50) [nM],EC50 (Plasmodium falciparum [3]) [nM],EC50 (Plasmodium falciparum [1])
OC1(c2ccc(Br)cc2)CCN(C2CCN(Cc3ccccc3)CC2)CC1,433,9260,183,,,
CC(C)N(CC(=O)Nc1cc(C(C)(C)C)nn1-c1ccc(Cl)c(Cl)c1)C(=O)c1ccc2ccccc2c1,3000,> 100000,1310,,,
C[C@@H]1C[C@H]2CC[C@H](O2)[C@H](C)C(=O)O[C@@H](C)C[C@@H]2CC[C@@H](O2)[C@@H](C)C(=O)O[C@H](C)C[C@H]2CC[C@@H](O2)[C@H](C)C(=O)O[C@@H](C)C[C@@H]2CC[C@@H](O2)[C@@H](C)C(=O)O1 [NONACTIN],359,3530,433,,,
O=C(Nc1ccc(C(F)(F)F)cc1)c1cc(S(=O)(=O)NC2CCCCCC2)ccc1F,3330,17700,4000,,,
COc1cccc(OC)c1C(=O)Nn1c(-c2cccc(C)c2)nc2ccccc2c1=O,> 1030,> 10000,> 1250,,,
OC(COc1ccccc1CNCCN1CCCC1)CN1CCc2ccccc2C1 (centres undefined),1660,63400,2200,,,
Cc1cc(C)cc(Nc2cc(C)nc3nc(C)nn23)c1,536,> 100000,594,,,
CC(C=NNC(N)=S)=NNC(N)=S,7.23,> 100000,8.94,,,
COc1cc2c(N3CCOCC3)cc(O)c(CC(=O)Nc3ccccc3)c2cc1OC,712,> 100000,626,,,
FC(F)(F)c1ccccc1NC(=S)N1CCCN(c2nc3ccc(Cl)cc3s2)CC1,146,77800,119,,,
c1ccc2cc3c(NCCCN4CCOCC4)ccnc3cc2c1,83.5,598,44.3,,,
CC(=O)c1cccc(S(=O)(=O)NCCCNc2nc3cc(C)cc(C)c3cc2C#N)c1,698,> 100000,1150,,,
CCCCN1Cc2ccc(C(=O)NC(C)C)cc2N=C1c1ccc(F)cc1,325,> 10000,722,,,
Cc1ccc(-[n+]2c(-c3ccccc3)cn3c2CCCCC3)cc1,515,67800,605,,,
CN1CCc2c(sc3nc(SCc4ccc(Cl)cc4)n(-c4cccc(Cl)c4)c(=O)c23)C1,363,> 100000,1050,,,
Cc1cc(C(C)(C)C)cc(S(=O)(=O)NCCO)c1C,377,> 100000,> 12500,,,
N=c1c2c(n(Cc3ccccc3Cl)c3c1CCC3)CCCC2,174,> 100000,222,,,
CC1CCCCN1CCCN(Cc1c2ccccc2cc2ccccc12)C(=O)c1ccccc1Cl (centres undefined),31.2,> 1740,878,,,
S=C(NC1CCCCC1)NC1CC2CCC(C1)N2Cc1ccccc1 (centres undefined),468,51400,2970,,,
Cc1ccc2c(nc3sc(=Cc4ccc(-c5ccccc5F)o4)c(=O)n32)c1C,> 1250,> 10000,921,,,
CC1=C(C(=O)OC2CCCCC2)C(c2ccc(F)c(F)c2)C2=C(CCCC2=O)N1 (centres undefined),2730,> 100000,6230,,,
CC(C)CC(N)C(=O)N1CCc2nc(Cc3ccc(F)cc3Cl)sc2C1 (centres undefined),471,> 10000,> 1250,,,
CC(C)(C)c1ccc(C(=O)N2CCCn3cccc3C2c2ccc(C(C)(C)C)cc2)cc1 (centres undefined),1290,> 100000,1560,,,

SMILES,EC50 (Plasmodium falciparum [1]; [4]) [nM],CC50 [2] [nM],"EC50 (Plasmodium falciparum [3]; Plasmodium falciparum, 3D7) [nM]",EC50 (Plasmodium falciparum [1]; read-out: EC50) [nM],EC50 (Plasmodium falciparum [3]) [nM],EC50 (Plasmodium falciparum [1])
CCCCNCCN1CCN(c2ccc(OC)cc2)C[C@@H]1c1ccccc1,26.7,> 10000,> 1280,,,
CCCCCc1ccc(C(=O)N(C)CCCNc2ccnc3cc(Cl)ccc23)cc1,310,15100,250,,,
CCOC(=O)C1=C(C(=O)OCC)SC(=C2C(=S)C(C)(C)N(C(=O)c3cccc(F)c3)c3cc(C)ccc32)S1,> 1400,> 100000,> 7520,,,
O=C(COc1ccc(-c2ncccn2)cc1CN1CCCCCC1)NCc1ccccc1C(F)(F)F,> 1150,> 10000,> 1250,,,
Cc1nccn1CC(C)C(=O)N1CCCC(n2nc(-c3cccs3)ccc2=O)C1 (centres undefined),> 1250,> 10000,> 620,,,
COc1cc(C(=O)Nc2ccc3nc4n(c(=O)c3c2)CCCCC4)cc(OC)c1OC,1880,> 10000,> 589,,,
NNC(=O)C1CCCN1S(=O)(=O)c1ccc(Cl)cc1 (centres undefined),547,> 10000,564,,,
Cc1c[nH]c(CCNCc2ccc(OCC(O)CN(C)Cc3ccccc3)cc2)n1 (centres undefined),1190,54800,1480,,,
CC1(C)C2CCC1(C)C(NCc1ccccc1O)C2 (centres undefined),31.8,48600,107,,,
Cn1cc(S(=O)(=O)c2cccc(Cl)c2)c(=O)c2cc(F)c(N3CCCCC3)cc21,> 372,> 10000,1030,,,
CC(C)(C)c1cc(Br)cc(C=NNc2ccc([N+](=O)[O-])cc2)c1O,761,> 10000,> 1210,,,
Cc1ccc(C=Cc2ccc(N(C)C)cc2)[n+](C)c1,,> 60500,,400,397,
Cc1oc(-c2cccs2)nc1CN1CCC(CO)(CCOc2ccccc2)CC1,2350,> 100000,8470,,,
C[C@H]1[C@@H](O)O[C@@H]2O[C@@]3(C)CC[C@H]4[C@H](C)CC[C@@H]1[C@@]24OO3 [ARTENIMOL],7.1,44900,11.8,,,
CCN1C(=Cc2sc3ccccc3[n+]2C)C=Cc2ccc(C)cc21,,> 11800,,> 1420,1650,
CCOc1ccc2[nH]c(=O)c(CN(CCN(CC)CC)C(=S)NCCCN(CC)CC)cc2c1,1480,> 100000,5560,,,
CC1=C(CC(=O)c2cccs2)C(=O)c2ccccc2C1=O,290,7750,1240,,,
COc1ccc(Nc2cc(C)nc(NCc3ccccc3)n2)cc1,427,16700,151,,,
CN(C)CCCNc1ncnc2c1[nH]c1ccc(F)cc12,305,48700,93.1,,,
CCCn1cc(SCC(=O)NCc2ccco2)c2ccccc21,673,> 100000,1020,,,
COc1ccc2cc(C(C)=NO)ccc2c1,> 5970,> 100000,> 12500,,,
CC(CCc1ccccc1)NCC(O)c1cccc([N+](=O)[O-])c1 (centres undefined),14.5,42500,205,,,
COc1ccc(OC)c(-c2ccc(O)c(CN3CCCC(C)C3)c2)c1 (centres undefined),94.5,61000,131,,,

SMILES,EC50 (Plasmodium falciparum [1]; [4]) [nM],CC50 [2] [nM],"EC50 (Plasmodium falciparum [3]; Plasmodium falciparum, 3D7) [nM]",EC50 (Plasmodium falciparum [1]; read-out: EC50) [nM],EC50 (Plasmodium falciparum [3]) [nM],EC50 (Plasmodium falciparum [1])
COc1ccc(CCN2C(=O)N(CC(C)C)C(=O)C23CCN(Cc2ccccc2O)CC3)cc1,93.1,> 100000,225,,,
O=C(NCc1ccco1)C1CCCN(c2cccc3c2C(=O)N(CCc2cccc(F)c2)C3=O)C1 (centres undefined),> 611,> 10000,> 1400,,,
CC1CC(C)CN(c2ccc([N+](=O)[O-])cc2-c2nnn[nH]2)C1 (centres undefined),> 1610,> 10000,> 831,,,
C=CCSc1oc(-c2ccco2)nc1[P+](c1ccccc1)(c1ccccc1)c1ccccc1,416,8420,310,,,
CSc1nnc(NC(=O)C2CC2)s1,1910,> 100000,> 12500,,,
CCc1cc(=O)n(C)c(SC(C)C(=O)Nc2ccc(F)cc2)n1 (centres undefined),729,> 10000,756,,,
O=C(NCCCN1CCCC1=O)C(=O)NCC(c1ccco1)N1CCOCC1 (centres undefined),1350,> 10000,> 1250,,,
CCOC(=O)COC1=C(CCCCC2CCCCC2)C(=O)c2ccccc2C1=O,1220,31000,58.1,,,
COc1ccc(C2C(C(=O)Nc3ccc(OC)c(OC)c3)CCC(=O)N2c2ccc(OC)cc2)cc1 (centres undefined),2270,> 10000,> 1360,,,
C=CCSc1nn2c(=O)c(C)nnc2s1,1080,> 10000,> 1620,,,
N#Cc1c2c(c(N3CCN(CCO)CC3)n3c1nc1ccccc13)CCC2,177,> 100000,207,,,
CCc1ccc(C(=O)C[n+]2cc(-c3ccc(C)cc3)n3c2CCC3)cc1,333,32700,764,,,
Cc1ccc2c(c1)N=C(c1ccc([N+](=O)[O-])cc1)CO2,> 12500,> 100000,> 1300,,,
COc1ccccc1CN1CCc2nc(N3CCCCC3)sc2C1,277,> 10000,454,,,
COc1ccc(C2Nc3ccc4ccccc4c3C3=C2C(=O)CC(C)(C)C3)cc1Br (centres undefined),649,> 100000,3190,,,
Cc1c(C(=O)Nc2ccccc2)sc2ncn(Cc3ccccc3F)c(=O)c12,> 1480,> 10000,> 875,,,
COc1ccccc1NC(=O)N(Cc1ccccc1)C(C)c1nc2ccccc2c(=O)n1-c1cc(C)ccc1C (centres undefined),< 6.88,> 6060,451,,,
CCCCCCCCCCCC(=O)Oc1ccccc1-c1nc2ccccn2c1NC(C)(C)CC(C)(C)C,93.6,> 10000,1260,,,
O=C(Nc1ccc(-c2nnc(-c3ccc(NC(=O)c4ccccc4[N+](=O)[O-])cc3)o2)cc1)c1ccccc1[N+](=O)[O-],> 12500,> 100000,406,,,
CCOC(=O)c1sc2nc(N)c(C#N)c(-c3cccs3)c2c1N,,> 100000,1130,,,No fit
CCOC(=O)c1cnc2c(OC)cccc2c1Nc1ccc(C(C)=O)cc1,123,> 100000,592,,,
CC1(C)N=C(N)N=C(N)N1c1ccc(Br)cc1,533,> 10000,0.592,,,
